Assay results from US9446019B2, “Sparstolonin B based pharmaceutical agent for neuroblastoma treatment” (University of South Carolina, priority 2013, dated 2016).

Experiments:
[1] = system: caspase-3 in neuroblastoma cells; test: Cleaved caspase-3 by immunofluorescence and Western blotting; type: cell-based, human; conditions: NAC 1 and 5 mM pretreatment, SsnB 10 μM; SH-SY5Y and SK-N-BE(2) cells
Procedure: For immunofluorescence staining, cells grown in Lab-TekII chamber slides (Fisher Scientific, Pittsburgh, Pa.) were treated with SsnB in complete culture medium. After treatments, cells were washed with 1×PBS, fixed with 4% paraformaldehyde/PBS for 20 min, and permeabilized with 0.2% Triton X-100/PBS for 10 min at room temperature. Cells were washed with 1×PBS for 3 times and blocked with 5% immunoglobulin (IgG) free-bovine serum albumin (BSA; Jackson ImmunoResearch Laboratories, West Grove, Pa.) in 1×PBS for overnight at 4° C. Cells were incubated with antibody raised against active form of caspase-3 (Cell Signaling Technology, Danvers, Mass.) diluted in 2.5% BSA/PBS for overnight at 4° C. Primary antibodies were detected with secondary antibodies conjugated with fluorescein isothiocyanate (FITC; Santa Cruz Biotechnology, Dallas, Tex.) for 2 h at room temperature. After washing with 1×PBS, cells were mounted with antifade Vectashield mounting media (Vector Laboratories, Burlingame, Calif.), and signals were visualized under Nikon-E600 fluorescence microscope. Nuclei were counterstained with 4′,6-diamidino-2-phenylindole (DAPI; Sigma).
After treatment with SsnB, cells were collected, washed with 1×PBS, and lysed with 1× cell lysis buffer (Cell Signaling Technology, Danvers, Mass.) containing phenylmethylsulfonyl fluoride (PMSF) and protease inhibitors (aprotinin and leupeptin) for 30 min on ice, and centrifuged at 12000×rpm for 10 min at 4° C. Supernatant (total cell protein) was collected and stored at −80° C. Protein concentration was determined by bicinchoninic acid method using BCA protein assay kit (Pierce/ThermoScientific, Waltham, Mass.). Equal amount of proteins were diluted with 5× Laemmli samples loading buffer and boiled for five minutes. The proteins were subjected to sodium dodecyl sulfate (SDS)-polyacrylamide gel electrophoresis and analyzed by Western blots. Briefly, after electrophoresis, proteins were transferred on polyvinylidene difluoride (PVDF) membrane at 100 volt for 3 h in cold room. Membrane was blocked with 5% non-fat dry milk/TBST (20 mM Tris-Cl, pH 7.4; 150 mM NaCl with 0.1% Tween-20) for 4 h at room temperature followed by incubation in primary antibodies diluted in 2.5% non-fat dry milk/TBST for overnight at 4° C. After washing with TBST, membrane was incubated with secondary antibodies (horseradish peroxidase-conjugated goat anti-rabbit or goat anti-mouse IgG; Santa Cruz Biotechnology, Dallas, Tex.) diluted in 2.5% non-fat dry milk/TBST for 3 h at room temperature. Signals were detected by chemiluminiscence detection kit (Pierce/Thermo Fisher Scientific, Rockford, Ill.). Primary antibodies used were cleaved caspase-3 and β-actin (Cell Signaling Technology), N-myc and p53 (Santa Cruz Biotechnology).
At cellular level, mitochondria- or receptor (Fas/FasL)-mediated pathways activate caspase signaling cascade which in turn induces DNA damage and initiates programmed cell death (apoptosis). To determine whether SsnB-induced cell death is mediated by caspase activation, Western blotting as well as immunofluorescence assay were performed to detect the active form of caspase-3 in neuroblastoma cells treated with SsnB for 2 days (SH-SY5Y and IMR-32 cells), 3 days (NGP cells) or 4 days (SKNF-1 and SK-N-BE(2) cells). The number of cleaved caspase-3 positive cells were quantitated by ImageJ programme and plotted. […]

[2] = system: reactive oxygen species in neuroblastoma cells; test: ROS generation, H2DCFDA fluorometry assay; type: cell-based, human; conditions: NAC 1 and 5 mM, SsnB 10 μM; p<0.05 vs SsnB alone
Procedure: The production of reactive oxygen species (ROS) in SsnB-treated neuroblastoma cells was detected by a cell-permeable fluorescence probe H2DCFDA (carboxy-2′,7′-dichlorodihydrofluorescein diacetate) according to the manufacturer's instructions (Invitrogen, Carlsbad, Calif.). Briefly, neuroblastoma cells were cultured in DMEM with 10% FBS in Lab-TekII chamber slides (Fisher Scientific, Pittsburg, Pa.) and treated with SsnB for 2 days (SH-SY5Y and IMR-32 cells), 3 days (NGP cell) or 4 days (SKNF-1 and SK-N-BE(2) cells). After treatments, cells were washed with Hank's buffered salt solution (HBSS; Thermo Scientific, Waltham, Mass.) and incubated with 25 μM of carboxy-H2DCFDA dye for 30 min at 37° C. in dark. Nuclei were counterstained with DAPI. Cells were washed three times with HBSS, mounted with Vectashield mounting medium (Vector Laboratories), and immediately examined under Nikon-E600 fluorescence microscopy equipped with fluorescein isothiocyanate (FITC) filter. Oxidation of H2DCFDA probe occurs almost exclusively in the cytosol, and generates a fluorescence that is proportional to ROS generation in that cell. As a negative control, cells without H2DCFDA dye were used to detect autofluorescence. The fluorometric analysis to detect generation of ROS was performed. Briefly, after treatments with SsnB as mentioned above, cells were labeled with carboxy-H2DCFDA dye (25 μM) for 30 min at 37° C. Cells were trypsinized, washed, and re-suspended in PBS and fluorescence intensity was monitored at excitation wavelength 485 nm and emission wavelength 530 nm with a spectramax spectrophotometer (Molecular Devices, Sunnyvale, Calif.).
SsnB-induced generation of ROS was also evaluated by fluorometry assay. Neuroblastoma cells as treated above were incubated with H2DCFDA dye for 30 min and the fluorescence intensity was measured at 485 nm (excitation wavelength) and 530 nm (emission wavelength).

[3] = system: human neuroblastoma cell lines (SH-SY5Y, SKNF-1, NGP, IMR-32 and SK-N-BE(2) cells); test: MTT cell viability assay; type: cell-based; conditions: NAC 1 mM or 5 mM pretreatment 1 h, then SsnB 10 μM; p<0.05 vs SsnB alone
Text: Human neuroblastoma cell lines (SH-SY5Y, IMR-32, SK-N-BE(2) and SKNF-1 cells) were obtained from The American Type Culture Collection (ATCC; Manassas, Va.), and NGP cells were kind gift from Garrett M. Brodeur (The Children's Hospital of Philadelphia, Philadelphia, Pa.). All cell lines were maintained in complete Dulbecco's Modified Eagle's Medium (DMEM) supplemented with 10% fetal bovine serum (FBS; Atlanta Biologicals, Lawrenceville, Ga.) and 1× antibiotic-antimycotic solution (containing 100 U/ml penicillin, 100 μg/ml streptomycin and 0.25 μg/ml amphotericin B), and grown at 37° C. in a humidified incubator with 5% CO2. Stock solution of SsnB was prepared in dimethyl sulfoxide (DMSO). Cells treated with different concentrations of SsnB in DMEM with 10% FBS were grown for subsequent days. Cells treated with equal volume of DMSO were used as control.
The viability of SsnB-treated cells was determined by MTT assay following manufacturer's instructions (Roche diagnostics corporation, Indianapolis, Ind.). Briefly, cells (1×10^4 cells/well) grown in 96-well cell culture plate were incubated with or without SsnB in 100 μl of complete culture medium with 10% FBS. After treatments, cells were incubated with 10 μl of MTT reagent for 4 h and then incubated overnight in solubilization buffer (100 μl) at 37° C. Absorbance of the formazan product was read at 575 nm in spectramax spectrophotometer (Molecular Devices, Sunnyvale, Calif.). A reference wavelength of 690 nm was used to detect background. The measured absorption directly correlated with the number of viable cells in culture. The experiments were performed in triplicate and repeated at least three times.
MTT assay was carried out to examine the effects of SsnB on viability of all the above listed neuroblastoma cells. After 2 days (SH-SY5Y and IMR-32), 3 days (NGP cells) or 4 days (SKNF-1 and SK-N-BE(2) cells) treatment with SsnB (1, 5, 10 and 20 μM), MTT cell viability assays were performed.

[4] = ROS-generating activity in cell-free system (H2DCFDA, HRP); type: biochemical; conditions: GSH 0.25 μM or 2.5 μM added to SsnB 10 μM + H2DCFDA + HRP
Procedure: FIG. 2D and FIG. 2E illustrate the ROS generating capacity of SsnB evaluated in a cell-free system containing H2DCFDA (25 μM), horseradish peroxidase (HRP, 5 units/ml), SsnB (10 μM) and glutathione (GSH, 0.25 or 2.5 μM) alone or in various combinations. Optical density (O.D.) at 540 nm were taken at different time points and plotted.
In a reaction system, after the removal of acetate group by cellular esterases and oxidation by reactive oxygen species, the non-fluorescent carboxy-H2DCFDA dye is oxidized to fluorescent molecule carboxy-DCF. To measure the ROS-generating activity of SsnB, the oxidation of carboxy-H2DCFDA dye was monitored in a cell-free system containing carboxy-H2DCFDA dye, horseradish peroxidase (HRP) and SsnB at 540 nm. HRP was used to supply esterase since without esterase carboxy-H2DCFDA is not sensitive to oxidant. […] After addition of HRP (5 units/ml) in the reaction mixture containing SsnB (10 μM)+H2DCFDA dye (25 μM), the OD value increased by 2% in the first 240 sec and further increased by 8% after 15 min compared to H2DCFDA+HRP reaction, indicating the increased oxidation of H2DCFDA to the fluorescent compound.

Row | SMILES | activation of caspase-3 in SsnB-treated cells [1] | ROS levels in SsnB-treated cells [2] | viability of SsnB-treated cells [3] | OD value on addition of GSH [4]
1 | CC(=O)NCCSSCCN [NAC, N-acetylcystamine, reference compound] | inhibited the activation of caspase-3 | significantly reduced ROS levels | significantly increased the viability | 
2 | N[C@@H](CCC(=O)N[C@@H](CS)C(=O)NCC(=O)O)C(=O)O [GSH, glutathione, reference compound] |  |  |  | lowers the OD value in a dose dependent manner
